Measurements taken from ChEMBL document CHEMBL4680317, “In vitro and in vivo effects of inhibitors on actin and myosin” (Bioorg Med Chem, 2021).
Activity calls are given as the source filed them. No cut-off for these calls is given here.

Experiments:
[1] = Cardiotoxicity in medaka embryo post hatching 24 hrs assessed as reduction in heart beat at 25 uM measured after 1 hr; assay type: toxicity; conditions: oryzias latipes
[2] = system: MDA-MB-231; test: Antimigratory activity against human MDA-MB-231 cells assessed as minimum effective concentration by light microscopy; assay type: functional
[3] = system: MDA-MB-231; test: Induction of cell morphological changes in human MDA-MB-231 cells assessed as membrane blebbing by inverted microscopy; assay type: functional, cell-based
[4] = organism: Oryctolagus cuniculus; test: Inhibition of rabbit muscle G-actin polymerization assessed as polymerized G-actin level at 25 uM incubated for 15 mins by spectrophotometric analysis (reference value: 100 %); assay type: tissue-based; set-up: scale not given: the % may be the effect or the level left; conditions: Muscle tissue
[5] = system: MDA-MB-231; test: Antimigratory activity against human MDA-MB-231 cells assessed as cell migration at 2.5 uM by light microscopy relative to control; assay type: functional
[6] = organism: Oryctolagus cuniculus; test: Inhibition of rabbit muscle F-actin depolymerization incubated for 15 mins by spectrophotometric analysis; assay type: tissue-based; conditions: Muscle tissue, dose 25-100 µM
[7] = system: MDA-MB-231; test: Cytotoxicity against human MDA-MB-231 cells assessed as reduction in cell viability incubated for 4 hrs by neutral red uptake assay; assay type: cell-based; conditions: mda-mb-231, 4 h
[8] = Cardiotoxicity in medaka embryo post hatching 24 hrs assessed as reduction in heart beat at 10 uM measured after 1 hr; assay type: toxicity; conditions: oryzias latipes
[9] = system: MDA-MB-231; test: Induction of cell morphological changes in human MDA-MB-231 cells assessed as membrane blebbing at 500 nM measured after 40 sec by inverted microscopy; assay type: functional, cell-based
[10] = system: MDA-MB-231; test: Antimigratory activity against human MDA-MB-231 cells assessed as cell migration at 10 uM by light microscopy relative to control; assay type: functional
[11] = organism: Oryctolagus cuniculus; test: Inhibition of rabbit muscle F-actin depolymerization at 50 to 100 uM incubated for 15 mins by spectrophotometric analysis; assay type: tissue-based; conditions: Muscle tissue, dose 50-100 µM
[12] = Cardiotoxicity in medaka embryo post hatching 24 hrs assessed as reduction in heart beat at 1.25 uM measured after 1 hr; assay type: toxicity; conditions: oryzias latipes
[13] = system: MDA-MB-231; test: Antimigratory activity against human MDA-MB-231 cells assessed as cell migration by light microscopy; assay type: functional, cell-based
[14] = biological target: Myosin light chain kinase 2, skeletal/cardiac muscle (Oryctolagus cuniculus) (UniProt P07313); test: Inhibition of rabbit skeletal muscle myosin-2 ATPase incubated for 20 mins followed by ATP addition and measured after 20 mins; assay type: tissue-based; conditions: Skeletal muscle tissue, time 40.0 min
Sequence of Myosin light chain kinase 2, skeletal/cardiac muscle (Oryctolagus cuniculus) (P07313 whole entry): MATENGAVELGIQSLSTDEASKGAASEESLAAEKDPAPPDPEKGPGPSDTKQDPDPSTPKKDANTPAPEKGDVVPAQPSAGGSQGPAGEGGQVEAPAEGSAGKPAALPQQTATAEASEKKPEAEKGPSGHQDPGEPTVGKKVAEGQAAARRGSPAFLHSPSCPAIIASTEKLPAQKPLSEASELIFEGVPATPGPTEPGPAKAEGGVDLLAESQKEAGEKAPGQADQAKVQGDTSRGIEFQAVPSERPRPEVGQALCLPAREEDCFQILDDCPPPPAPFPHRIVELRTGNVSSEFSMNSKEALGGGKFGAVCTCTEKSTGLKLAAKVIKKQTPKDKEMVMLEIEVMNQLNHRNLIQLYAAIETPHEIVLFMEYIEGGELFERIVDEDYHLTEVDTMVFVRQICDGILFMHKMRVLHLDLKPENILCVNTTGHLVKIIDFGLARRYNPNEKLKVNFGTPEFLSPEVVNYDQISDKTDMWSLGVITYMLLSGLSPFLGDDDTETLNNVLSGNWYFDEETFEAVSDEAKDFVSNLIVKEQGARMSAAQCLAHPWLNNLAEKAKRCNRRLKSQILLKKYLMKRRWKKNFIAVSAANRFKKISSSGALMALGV

[15] = Cardiotoxicity in medaka embryo post hatching 24 hrs assessed as reduction in heart beat at 17.5 uM measured after 1 hr; assay type: toxicity; conditions: oryzias latipes
[16] = system: MDA-MB-231; test: Induction of cell morphological changes in human MDA-MB-231 cells assessed as membrane blebbing at 2 uM measured after 30 mins by inverted microscopy; assay type: functional, cell-based
[17] = system: MDA-MB-231; test: Antimigratory activity against human MDA-MB-231 cells assessed as cell migration at 5 uM by light microscopy relative to control; assay type: functional

Row | Structure (SMILES) | Activity [1] | LED [2] | Activity [3] | Activity [4] | Activity [5] | inhibition [6] | Activity [7] | Activity [8] | Activity [9] | Activity [10] | inhibition [11] | Activity [12] | inhibition [13] | inhibition [14] | Activity [15] | Activity [16] | Activity [17]
1 | O=c1c(O)c(-c2ccc(O)cc2)oc2cc(O)cc(O)c12 [KAEMPFEROL] | Non-Toxic | 2.5 µM | inactive | 71.8% | 70% | Dose-dependent effect | – | – | – | – | – | – | – | – | – | – | –
2 | C=C1[C@@H](C)[C@H]2[C@H](Cc3ccccc3)NC(=O)[C@]23OC(=O)/C=C/[C@H](O)CCC[C@@H](C)C/C=C/[C@H]3[C@@H]1O [CYTOCHALASIN B] | – | – | – | 43.5% | – | – | Toxic | Non-Toxic | Active | 8.2% | Active | – | – | – | – | – | –
3 | O=c1c(O)c(-c2ccc(O)c(O)c2)oc2cc(O)cc(O)c12 [QUERCETIN] | Non-Toxic | – | inactive | 74.5% | inactive | Dose-dependent effect | – | – | – | – | – | – | – | – | – | – | –
4 | Oc1c(Cl)cc(Cl)cc1-c1[nH]c(Cl)c(Cl)c1Cl [PENTACHLOROPSEUDILIN] | – | 1 µM | – | 38.4% | 62.6% | – | Toxic | – | – | – | – | Toxic | Dose-dependent effect | Dose-dependent effect | – | – | –
5 | Oc1cc(O)c2c(c1)O[C@H](c1cc(O)c(O)c(O)c1)[C@H](O)C2 [EPIGALLOCATECHIN] | Non-Toxic | – | inactive | 118% | inactive | – | – | – | – | – | – | – | – | – | – | – | –
6 | Oc1c(Br)cc(Br)cc1-c1[nH]c(Br)c(Br)c1Br [PENTABROMOPSEUDILIN] | – | 1 µM | inactive | 104% | 67% | – | Toxic | – | – | – | – | Toxic | Dose-dependent effect | – | – | – | –
7 | Cc1ccc2c(c1)C(=O)[C@]1(O)CCN(c3ccccc3)C1=N2 | – | 5 µM | – | 78.7% | – | – | – | Toxic | – | – | Active | – | – | – | Non-Toxic | inactive | 136.6%
